The source of these data is patent US20210052492A1, “Cannabinoid Dosing Regime For Psoriasis” (Botanix Pharmaceuticals Ltd., priority 2018, published 2021).

SMILES strings stand for the structures.

The nature of the data set: Skin permeation of CBD in a Franz-type diffusion cell. Type of data set: in vitro ADME. Particulars: 5 ul of 5.0% w/w CBD formulation, 48-hour exposure. The method, then:
Dermatomed skin from a single donor was mounted in a Franz-type diffusion cell (0.55 cm^2 receptor fluid exposure surface area) and dosed with 5 ul of CBD formulated in an mixture of a volatile solvent (hexylmethyldisiloxane/polymethylsiloxane—93% w/w), and residual solvent (arlamol E—2% w/w) at a concentration of 5.0% (w/w; 35.5 mg/ml). Following dosing, receptor phase samples were collected at 4, 10, 24 and 48 hours; after which the study was terminated.
The residual formulation was removed by tape stripping and the epidermis and dermis separated by blunt dissection. The levels of CBD in the epidermis, dermis, and receptor fluid samples were then analyzed using a bioanalytical method with LC-MS/MS detection.

Regarding `C=C(C)C1CCC(C)=CC1c1c(O)cc(CCCCC)cc1O` (centres unmarked) [CBD, 2-[3-methyl-6-(1-methylethenyl)-2-cyclohexen-1-yl]-5-pentyl-1,3-benzenediol], the “skin permeation through to the receptor phase, % of applied dose” value was “less than 0.081%” and the “skin permeation, amount in the receptor phase” value is under 278 ng/cm^2.
